A short description of this data set: Log P by HPLC on reversed phase columns (EEC directive 79/831 Annex V.A8). The format is physicochemical. Particulars: method [a]: LC-UV, acidic range, 0.1% formic acid in water and acetonitrile as eluent. How it is done:
Measurement of Log P values was performed according to EEC directive 79/831 Annex V.A8 by HPLC (High Performance Liquid Chromatography) on reversed phase columns with the following methods: • ^[a] Log P value is determined by measurement of LC-UV, in an acidic range, with 0.1% formic acid in water and acetonitrile as eluent (linear gradient from 10% acetonitrile to 95% acetonitrile). • ^[b] Log P value is determined by measurement of LC-UV, in a neutral range, with 0.001 molar ammonium acetate solution in water and acetonitrile as eluent (linear gradient from 10% acetonitrile to 95% acetonitrile). • ^[c] Log P value is determined by measurement of LC-UV, in an acidic range, with 0.1% phosphoric acid and acetonitrile as eluent (linear gradient from 10% acetonitrile to 95% acetonitrile).
If more than one Log P value is available within the same method, all the values are given and separated by “+”.
Calibration was done with straight-chain alkan-2-ones (with 3 to 16 carbon atoms) with known Log P values (measurement of Log P values using retention times with linear interpolation between successive alkanones).

Where [1] appears, read: reversed phase HPLC columns, Table 1.

Structures are written as SMILES.

40 compounds from patent publication US20200029563A1, “NOVEL 5-SUBSTITUTED IMIDAZOLYLMETHYLDIOXOLANE DERIVATIVES” (Bayer CropScience Aktiengesellschaft, priority 2016, published 2020) can be followed below.

As usually defined, the chromatographic logP is lipophilicity estimated from chromatographic retention. Read a low chromatographic logP as lower lipophilicity.

On to `CC1COC(Cn2cncc2Cl)(c2ccc(Oc3ccc(Cl)cc3)cc2Cl)O1` (mixture of isomers) [Compound I-09], for which the LogP (Table 1) was 3.64^[a].
Regarding `CC1COC(Cn2cncc2Br)(c2ccc(Oc3ccc(Cl)cc3)cc2Cl)O1` (racemic) [Compound I-23], the LogP (Table 1) is 3.68^[a].
On to `C#Cc1cncn1CC1(c2ccc(Oc3ccc(Cl)cc3)cc2Cl)OCC(C)O1` (racemic) [Compound I-26], for which the LogP (Table 1) is 3.15 ^[a].
As for `CC1COC(Cn2cncc2Br)(c2ccc(Oc3ccc(C(F)(F)F)cc3)cc2Cl)O1` (racemic) [Compound I-31], where the note is “Table 1”, the LogP is 3.85 ^[a].
As to `CC1COC(Cn2cncc2C#C[Si](C)(C)C)(c2ccc(Oc3ccc(Cl)cc3)cc2Cl)O1` (racemic) [I-RP-03], the LogP (Table 2 (I-RP compounds)) is 4.90 ^[a].
`Clc1ccc(Oc2ccc(C3(Cn4cncc4Cl)OCCO3)c(Cl)c2)cc1` [Compound I-01, 5-chloro-1-[[2-[2-chloro-4-(4-chlorophenoxy)phenyl]-1,3-dioxolan-2-yl]methyl]imidazole] returned a chromatographic logP under setting [1] of 3.29.
`Clc1ccc(Oc2ccc(C3(Cn4cncc4Br)OCCO3)c(Cl)c2)cc1` [Compound I-02, 5-bromo-1-[[2-[2-chloro-4-(4-chlorophenoxy)phenyl]-1,3-dioxolan-2-yl]methyl]imidazole] showed a chromatographic logP under setting [1] of 3.35.
As to `Clc1cc(Oc2ccc(I)cc2)ccc1C1(Cn2cncc2Cl)OCCO1` [Compound I-03], for the setting “Table 1”, the LogP is 3.82^[a].
The compound `FC(F)(F)c1cc(Oc2ccc(Cl)cc2)ccc1C1(Cn2cncc2Cl)OCCO1` [Compound I-04, 5-chloro-1-[[2-[4-(4-chlorophenoxy)-2-(trifluoromethyl)phenyl]-1,3-dioxolan-2-yl]methyl]imidazole] yielded a chromatographic logP under setting [1] of 3.75.
Take `FC(F)(F)c1cc(Oc2ccc(Cl)nc2)ccc1C1(Cn2cncc2Cl)OCCO1` [Compound I-05]: under “Table 1”, the LogP was 2.58^[a].
Regarding `FC(F)(F)c1cc(Oc2ccc(Br)cc2)ccc1C1(Cn2cncc2Cl)OCCO1` [Compound I-06], the LogP (Table 1) is 3.77^[a].
For `Clc1cc(Oc2ccc(Br)cc2)ccc1C1(Cn2cncc2Cl)OCCO1` [Compound I-07], for the setting “Table 1”, the LogP was 3.53^[a].
Still for that read-out and setting: the same measure for `Clc1cc(Oc2ccc(I)cc2)ccc1C1(Cn2cncc2Br)OCCO1` [Compound I-08]: 3.76^[a]; for `FC(F)(F)c1cncn1CC1(c2ccc(Oc3ccc(Cl)cc3)cc2Cl)OCCO1` [Compound I-10]: 4.64^[a].
As for `Fc1cncn1CC1(c2ccc(Oc3ccc(Cl)cc3)cc2Cl)OCCO1` [Compound I-11], the LogP (Table 1) is 2.88^[a].
Compound `CC1COC(Cn2cncc2F)(c2ccc(Oc3ccc(Cl)cc3)cc2Cl)O1` (stereo not shown) [Compound I-12, 1-[[2-[2-chloro-4-(4-chlorophenoxy)phenyl]-4-methyl-1,3-dioxolan-2-yl]methyl]-5-fluoro-imidazole] registered a chromatographic logP under setting [1] of 3.06.
With `Clc1ccc(Oc2ccc(C3(Cn4cncc4Cl)OCCO3)c(Cl)c2)cn1` [Compound I-13], under “Table 1”, the LogP is 2.42^[a].
Regarding `Clc1ccc(Oc2ccc(C3(Cn4cncc4Cl)OCCO3)c(Cl)c2)nc1` [Compound I-14], under “Table 1”, the LogP is 2.66^[a].
As to `Fc1cncn1CC1(c2ccc(Oc3ccc(Cl)cc3)cc2C(F)(F)F)OCCO1` [Compound I-15], the LogP (Table 1) was 3.06^[a].
Regarding `Fc1cncn1CC1(c2ccc(Oc3ccc(Br)cc3)nc2C(F)(F)F)OCCO1` [Compound I-16], the LogP (Table 1) was 2.78^[a].
With `Fc1nc(Oc2ccc(Cl)cc2)ccc1C1(Cn2cncc2F)OCCO1` [Compound I-17], the LogP (Table 1) is 2.34^[a].
As for `Fc1cncn1CC1(c2ccc(Oc3ccc(Cl)cc3)nc2C(F)(F)F)OCCO1` [Compound I-18, 6-(4-chlorophenoxy)-3-[2-[(5-fluoroimidazol-1-yl)methyl]-1,3-dioxolan-2-yl]-2-(trifluoromethyl)pyridine], the chromatographic logP under setting [1] was determined as 2.42.
In the case of `Fc1cncn1CC1(c2ccc(Oc3ccc(C(F)(F)F)nc3)nc2C(F)(F)F)OCCO1` [Compound I-19, 3-[2-[(5-fluoroimidazol-1-yl)methyl]-1,3-dioxolan-2-yl]-2-(trifluoromethyl)-6-[[6-(trifluoromethyl)-3-pyridyl]oxy]pyridine], the chromatographic logP under setting [1] was determined as 2.53.
For `Fc1cncn1CC1(c2ccc(Oc3ccc(Br)nc3)nc2C(F)(F)F)OCCO1` [Compound I-20], the LogP (Table 1) was 2.17^[a].
Take `Clc1cc(Oc2ccc(Br)cc2)ccc1C1(Cn2cncc2Br)OCCO1` [Compound I-21]: the LogP (Table 1) was 3.48^[a].
For `C#Cc1cncn1CC1(c2ccc(Oc3ccc(Cl)cc3)cc2Cl)OCCO1` [Compound I-22], for the setting “Table 1”, the LogP is 2.94^[a].
Take `C[Si](C)(C)C#Cc1ccc(Oc2ccc(C3(Cn4cncc4Br)OCCO3)c(Cl)c2)cc1` [Compound I-24]: the LogP (Table 1) is 4.98 ^[a].
Regarding `C#Cc1ccc(Oc2ccc(C3(Cn4cncc4C#C)OCCO3)c(Cl)c2)cc1` [Compound I-25], where the note is “Table 1”, the LogP was 2.76 ^[a].
With `FC(F)(F)c1cc(Oc2ccc(Cl)cc2)ccc1C1(Cn2cncc2Br)OCCO1` [Compound I-27], the LogP (Table 1) is 3.58 ^[a].
As to `C#Cc1cncn1CC1(c2ccc(Oc3ccc(Cl)cc3)cc2C(F)(F)F)OCCO1` [Compound I-28], where the note is “Table 1”, the LogP is 3.13 ^[a].
As to `FC(F)(F)c1ccc(Oc2ccc(C3(Cn4cncc4Br)OCCO3)c(Cl)c2)cc1` [Compound I-29], the LogP (Table 1) is 3.44 ^[a].
`C#Cc1cncn1CC1(c2ccc(Oc3ccc(C(F)(F)F)cc3)cc2Cl)OCCO1` [Compound I-30, 1-[(2-{2-chloro-4-[4-(trifluoromethyl)phenoxy]phenyl}-1,3-dioxolan-2-yl)methyl]-5-ethynyl-1H-imidazole] gave a chromatographic logP (Table 1) of 3.04.
Under setting [1], `CC1COC(Cn2cncc2C#N)(c2ccc(Oc3ccc(C(F)(F)F)cc3)cc2Cl)O1` (stereo not shown) [Compound I-32, 1-{[2-{2-chloro-4-[4-(trifluoromethyl)phenoxy]phenyl}-4-methyl-1,3-dioxolan-2-yl]methyl}-1H-imidazole-5-carbonitrile] gave a chromatographic logP of 4.08.
Regarding `N#Cc1cncn1CC1(c2ccc(Oc3ccc(Cl)cc3)cc2Cl)OCCO1` [Compound I-33], under “Table 1”, the LogP was 3.78 ^[a].
Same read-out and setting: the same measure for `N#Cc1cncn1CC1(c2ccc(Oc3ccc(C(F)(F)F)cc3)cc2Cl)OCCO1` [Compound I-34]: 3.92 ^[a]; for `N#Cc1cncn1CC1(c2ccc(Oc3ccc(Cl)cc3)cc2C(F)(F)F)OCCO1` [Compound I-35]: 4.03 ^[a].
With `C[Si](C)(C)C#Cc1cncn1CC1(c2ccc(Oc3ccc(Cl)cc3)cc2Cl)OCCO1` [I-RP-01], the LogP (Table 2 (I-RP compounds)) was 4.54 ^[a].
Same read-out and setting: the same measure for `C[Si](C)(C)C#Cc1ccc(Oc2ccc(C3(Cn4cncc4C#C[Si](C)(C)C)OCCO3)c(Cl)c2)cc1` [I-RP-02]: 6.17 ^[a].
The same measure, in the same setting: the same measure for `C[Si](C)(C)C#Cc1cncn1CC1(c2ccc(Oc3ccc(Cl)cc3)cc2C(F)(F)F)OCCO1` [I-RP-04]: 4.67 ^[a].
`C[Si](C)(C)C#Cc1cncn1CC1(c2ccc(Oc3ccc(C(F)(F)F)cc3)cc2Cl)OCCO1` [I-RP-05, 1-[(2-{2-chloro-4-[4-(trifluoromethyl)phenoxy]phenyl}-1,3-dioxolan-2-yl)methyl]-5-[(trimethylsilyl)ethynyl]-1H-imidazole] yielded a chromatographic logP (Table 2 (I-RP compounds)) of 4.59.
